Test results from PMC4503722, “Novel Phenotypic Outcomes Identified for a Public Collection of Approved Drugs from a Publicly Accessible Panel of Assays” (PLoS ONE, 2015).
Like-named read-outs stand apart in the source and are kept apart here.

How the values were obtained:
[1] = tested on: HT-29; test: cells; format: cell-based; conditions: for IC50 / Basal_Viability ATP HT-29 IC50/EC50: assay number 28; for IC50: read-out: Basal_Viability ATP HT-29 summarized IC50
[2] = tested on: RKO; test: cells; format: cell-based; conditions: for IC50 / Basal_Viability ATP RKO IC50/EC50: assay number 29; for IC50: read-out: Basal_Viability ATP RKO summarized IC50
[3] = tested on: HCT116; test: cells; format: cell-based; conditions: basal; for IC50 / Basal_Viability ATP HCT116 IC50/EC50: assay number 25; for IC50: read-out: Basal_Viability ATP HCT116 summarized IC50
[4] = tested on: SNU-C1; test: cells; format: cell-based; conditions: for IC50 / Basal_Viability ATP SNU-C1 IC50/EC50: assay number 30; for IC50: read-out: Basal_Viability ATP SNU-C1 summarized IC50
[5] = tested on: HCT116 cells treated with a GSK3β inhibitor; test: cells; format: cell-based; conditions: for IC50 / GSK3b inh pretreated_Viability ATP HCT116 IC50/EC50: assay number 26, GSK3b inhibitor pretreated; for IC50: read-out: GSK3b inh pretreated_Viability ATP HCT116 summarized IC50
[6] = tested on: Colo320; test: cells; format: cell-based; conditions: for IC50 / Basal_Viability ATP Colo 320 IC50/EC50: assay number 27; for IC50: read-out: Basal_Viability ATP Colo 320 summarized IC50
[7] = tested on: HeLa cells; test: cells; format: cell-based;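 as to Hela CellCycMod PI 4N summarized IC50: value tracks stimulation of 4N DNA content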
[8] = tested on: DLD-1; test: cells; format: cell-based; conditions: for IC50 / Basal_Viability ATP DLD-1 IC50/EC50: assay number 23; for IC50: read-out: Basal_Viability ATP DLD-1 summarized IC50
[9] = tested on: SW480; test: cells; format: cell-based; conditions: for IC50 / Basal_Viability ATP SW480 IC50/EC50: assay number 24; for IC50: read-out: Basal_Viability ATP SW480 summarized IC50
[10] = tested on: endothelial tube formation in co-cultures of ECFCs and ADSCs treated with VEGF; test: cells; format: cell-based, human
[11] = tested on: ECFC/ADSC co-culture cell nuclei number
[12] = assay number 14, 2N, read-out: Hela CellCycMod PI 2N summarized IC50
[13] = assay number 15, S phase, read-out: Hela CellCycMod PI S Phase summarized IC50
[14] = assay number 16, 4N, read-out: Hela CellCycMod PI 4N summarized IC50
[15] = assay number 17, MI, read-out: Hela CellCycMod PI MI summarized IC50
[16] = assay number 18, cell number, read-out: Hela CellCycMod PI Cell Number summarized IC50

CCN1/C(=C/C=C/c2sc3ccccc3[n+]2CC)Sc2ccccc21.[I-] [NCGC00166288-02]
IC50/EC50, Basal_Viability ATP HT-29 (assay number 28) ([1]; basal): 0.00838 µM | IC50/EC50, Basal_Viability ATP RKO (assay number 29) ([2]; basal): 0.00898 µM | IC50/EC50, Basal_Viability ATP HCT116 (assay number 25) [3]: 0.00957 µM | IC50/EC50, Basal_Viability ATP SNU-C1 (assay number 30) ([4]; basal): 0.01721 µM | IC50/EC50, GSK3b inh pretreated_Viability ATP HCT116 (assay number 26) ([5]; GSK3b inh pretreated): 0.00875 µM | IC50/EC50, Basal_Viability ATP Colo 320 (assay number 27) ([6]; basal): 0.562 µM | IC50/EC50, Hela CellCycMod PI 2N (assay number 14) ([7]; 2N): 8.506 µM | IC50/EC50, Hela CellCycMod PI 4N (assay number 16) ([7]; 4N): > 10 µM | IC50/EC50, Hela CellCycMod PI Cell Number (assay number 18) ([7]; Cell Number): 0.03604 µM | IC50/EC50, Hela CellCycMod PI MI (assay number 17) ([7]; MI): 4.476 µM | IC50/EC50, Hela CellCycMod PI S Phase (assay number 15) ([7]; S Phase): > 10 µM | IC50/EC50, Basal_Viability ATP DLD-1 (assay number 23) ([8]; basal): 0.0148 µM | IC50/EC50, Basal_Viability ATP SW480 (assay number 24) ([9]; basal): 0.172 µM

CCC(=O)c1ccc(O)cc1 [NCGC00018097-06]
IC50 ([1]; basal): > 20 µM | IC50 ([2]; basal): 7.8 µM | IC50 [3]: > 20 µM | IC50 ([4]; basal): > 20 µM | IC50 [5]: 6.25 µM | IC50 ([6]; basal): > 20 µM | IC50 [7, 12]: > 10 µM | IC50 [7, 13]: > 10 µM | IC50 [7, 14]: > 10 µM | IC50 [7, 15]: > 10 µM | IC50 [7, 16]: > 10 µM | IC50 ([8]; basal): 6.67 µM | IC50 ([9]; basal): 4.1 µM

CCc1cccc(N(C)C(N)=Nc2cccc3ccccc23)c1.Cl [NCGC00015236-04]
Basal_Viability ATP HT-29 IC50/EC50 ([1]; basal): > 20 µM | Basal_Viability ATP RKO IC50/EC50 ([2]; basal): > 20 µM | Basal_Viability ATP SNU-C1 IC50/EC50 ([4]; basal): > 20 µM | GSK3b inh pretreated_Viability ATP HCT116 IC50/EC50 [5]: > 20 µM | Basal_Viability ATP Colo 320 IC50/EC50 ([6]; basal): > 20 µM | VEGF_ADSC\ECFC Angio CD31 TubeArea IC50/EC50 [10]: > 10 µM | Basal_Viability ATP DLD-1 IC50/EC50 ([8]; basal): > 20 µM | VEGF_ADSC\ECFC Angio Hoechst NucArea IC50/EC50 [11]: > 10 µM | Basal_Viability ATP SW480 IC50/EC50 ([9]; basal): > 20 µM

CN1CCC(Nc2ncc3ncnc(Nc4ccc(F)c(Cl)c4)c3n2)CC1 [NCGC00161422-04]
Basal_Viability ATP HT-29 IC50/EC50 [1]: 4.003 µM | Basal_Viability ATP RKO IC50/EC50 [2]: 3.167 µM | Basal_Viability ATP HCT116 IC50/EC50 [3]: > 20 µM | Basal_Viability ATP SNU-C1 IC50/EC50 [4]: 11.9566 µM | GSK3b inh pretreated_Viability ATP HCT116 IC50/EC50 [5]: 3.384 µM | Basal_Viability ATP Colo 320 IC50/EC50 [6]: 11.6683 µM | Hela CellCycMod PI 2N IC50/EC50 ([7]; assay number 14, 2N): > 10 µM | Hela CellCycMod PI 4N IC50/EC50 ([7]; assay number 16, 4N): > 10 µM | Hela CellCycMod PI MI IC50/EC50 ([7]; assay number 17, MI): > 10 µM | Hela CellCycMod PI Cell Number IC50/EC50 ([7]; assay number 18, cell number): > 10 µM | Basal_Viability ATP DLD-1 IC50/EC50 [8]: 2.292 µM | Basal_Viability ATP SW480 IC50/EC50 [9]: 2.346 µM

O=C(O)CCc1nc2ccccc2[nH]1 [NCGC00013414-04]
IC50 ([1]; basal): > 20 µM | IC50 ([2]; basal): > 20 µM | IC50 [3]: > 20 µM | IC50 ([4]; basal): > 20 µM | IC50 [5]: 2.2 µM | IC50 ([6]; basal): > 20 µM | IC50 [7, 12]: > 10 µM | IC50 [7, 13]: > 10 µM | IC50 [7, 14]: > 10 µM | IC50 [7, 15]: > 10 µM | IC50 [7, 16]: > 10 µM | IC50 ([8]; basal): 2.42 µM | IC50 ([9]; basal): > 20 µM

O=C(O)CN(CCN(CC(=O)O)CC(=O)O)CCN(CC(=O)O)CC(=O)O [NCGC00015360-08]
IC50 ([1]; basal): > 20 µM | IC50 ([2]; basal): 2.96 µM | IC50 [3]: > 6.67 µM | IC50 ([4]; basal): > 20 µM | IC50 [5]: 0.896 µM | IC50 ([6]; basal): > 20 µM | IC50 [7, 12]: > 10 µM | IC50 [7, 13]: > 10 µM | IC50 [7, 14]: > 10 µM | IC50 [7, 15]: > 10 µM | IC50 [7, 16]: > 10 µM | IC50 ([8]; basal): > 20 µM | IC50 ([9]; basal): 3.14 µM

Cl.O=C1[C@H]2CCCC[C@H]2C(=O)N1CCCCN1CCN(c2nsc3ccccc23)CC1 [NCGC00164567-02]
Basal_Viability ATP HT-29 IC50/EC50 [1]: 2.0058 µM | Basal_Viability ATP RKO IC50/EC50 [2]: 0.5459 µM | Basal_Viability ATP HCT116 IC50/EC50 [3]: 2.0649 µM | Basal_Viability ATP SNU-C1 IC50/EC50 [4]: 9.3713 µM | GSK3b inh pretreated_Viability ATP HCT116 IC50/EC50 [5]: 1.6729 µM | Basal_Viability ATP Colo 320 IC50/EC50 [6]: 13.2075 µM | Hela CellCycMod PI 2N IC50/EC50 ([7]; assay number 14, 2N): > 10 µM | Hela CellCycMod PI S Phase IC50/EC50 ([7]; assay number 15, S phase): > 10 µM | Hela CellCycMod PI 4N IC50/EC50 ([7]; assay number 16, 4N): > 10 µM | Hela CellCycMod PI MI IC50/EC50 ([7]; assay number 17, MI): > 10 µM | Hela CellCycMod PI Cell Number IC50/EC50 ([7]; assay number 18, cell number): > 10 µM | Basal_Viability ATP DLD-1 IC50/EC50 [8]: 8.238 µM | Basal_Viability ATP SW480 IC50/EC50 [9]: 5.9082 µM
